Active and inactive are the calls of the source. The rule behind the calls is not given here.
Tests used:
[1] = Drug concentration in Sprague-Dawley rat brain at 100 mg/kg, ip measured 6 hrs post administration by LC-MS analysis; format: ADME, organism-based; details: read-out: Ct
[2] = target: T1, Prostaglandin G/H synthase 2 (Rattus norvegicus) (UniProt P35355); assay: In vivo inhibition of COX2 in ip dosed orthotopic Sprague-Dawley rat model inoculated with C6 cells assessed as reduction in PGE2 production by ELISA; format: functional, organism-based
T1 sequence (whole entry): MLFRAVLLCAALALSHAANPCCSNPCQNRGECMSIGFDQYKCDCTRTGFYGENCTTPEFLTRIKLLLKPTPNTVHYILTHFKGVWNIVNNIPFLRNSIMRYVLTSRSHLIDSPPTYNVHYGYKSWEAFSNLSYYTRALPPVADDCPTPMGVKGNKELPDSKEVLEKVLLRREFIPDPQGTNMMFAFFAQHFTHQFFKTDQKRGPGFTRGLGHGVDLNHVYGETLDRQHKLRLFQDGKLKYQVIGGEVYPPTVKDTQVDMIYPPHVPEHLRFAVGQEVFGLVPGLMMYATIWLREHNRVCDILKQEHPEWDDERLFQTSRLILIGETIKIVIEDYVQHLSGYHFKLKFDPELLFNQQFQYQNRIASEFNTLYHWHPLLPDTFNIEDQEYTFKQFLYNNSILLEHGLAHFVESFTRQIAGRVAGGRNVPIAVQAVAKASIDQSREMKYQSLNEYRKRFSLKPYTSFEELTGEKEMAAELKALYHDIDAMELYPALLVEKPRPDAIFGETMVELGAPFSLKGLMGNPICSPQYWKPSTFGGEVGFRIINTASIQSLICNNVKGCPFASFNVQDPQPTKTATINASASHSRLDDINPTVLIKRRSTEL

U-251 [3] = assay: Induction of morphological changes in human U-251 cells assessed as appearance of rounded and shortened cells at 3.3 uM incubated for 72 hrs by Giemsa staining based light microscopic method; format: functional, cell-based
[4] = target: T2, Prostaglandin G/H synthase 2 (Homo sapiens) (UniProt P35354); assay: Inhibition of COX-2 in human U-87 MG cells assessed as inhibition of PGE2 production measured after 72 hrs; format: cell-based
T2 sequence (whole entry): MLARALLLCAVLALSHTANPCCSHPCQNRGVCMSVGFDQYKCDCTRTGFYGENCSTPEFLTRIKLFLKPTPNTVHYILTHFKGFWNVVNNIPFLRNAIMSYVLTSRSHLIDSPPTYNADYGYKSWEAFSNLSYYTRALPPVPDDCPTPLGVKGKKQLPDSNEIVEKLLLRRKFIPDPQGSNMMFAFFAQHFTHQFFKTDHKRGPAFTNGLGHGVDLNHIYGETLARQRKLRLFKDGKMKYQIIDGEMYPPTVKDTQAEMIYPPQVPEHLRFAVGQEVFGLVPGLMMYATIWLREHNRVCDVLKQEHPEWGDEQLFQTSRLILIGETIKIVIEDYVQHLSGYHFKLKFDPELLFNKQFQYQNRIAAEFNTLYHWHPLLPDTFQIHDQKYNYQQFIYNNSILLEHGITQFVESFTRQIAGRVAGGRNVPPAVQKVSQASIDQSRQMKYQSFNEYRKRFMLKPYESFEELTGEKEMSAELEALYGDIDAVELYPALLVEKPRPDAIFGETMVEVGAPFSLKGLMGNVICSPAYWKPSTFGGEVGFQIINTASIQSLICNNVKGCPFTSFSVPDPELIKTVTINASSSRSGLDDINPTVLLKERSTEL

U-87 MG [5] = assay: Induction of cell cycle arrest in human U-87 MG cells assessed as accumulation of cells at G2/M phase incubated for 72 hrs by propidium iodide/RNase A staining based flow cytometry analysis; format: functional; details: U-87MG ATCC
[6] = Acute toxicity in Kunming mouse assessed as death at 500 mg/kg, ip administered as single dose observed every day for 14 days; format: organism-based; details: in vivo, 336 h, time 14 day
U-251 [7] = assay: Inhibition of cell migration in human U-251 cells incubated for 24 hrs by crystal violet staining based light microscopic analysis; format: functional
U-87 MG [8] = assay: Induction of morphological changes in human U-87 MG cells assessed as appearance of shrunken cell bodies at 3.3 uM incubated for 72 hrs by Giemsa staining based light microscopic method; format: functional; details: U-87MG ATCC
C6 = assay: Antiproliferative activity against rat C6 cells assessed as inhibition of cell growth measured after 72 hrs by CCK-8 assay; format: functional, cell-based; details: C6, 72 h
[9] = Acute toxicity in Kunming mouse assessed as death at 1000 mg/kg, ip administered as single dose observed every day for 14 days; format: organism-based; details: in vivo, 336 h, time 14 day
U-87 MG [10] = assay: Induction of cell cycle arrest in human U-87 MG assessed as decrease in G0/G1 phase accumulation at 10 uM incubated for 72 hrs by propidium iodide/RNase A staining based flow cytometry; format: functional; details: U-87MG ATCC
U-87 MG [11] = assay: Antiproliferative activity against human U-87 MG cells assessed as inhibition of cell growth measured up to 72 hrs by CCK-8 assay; format: functional, cell-based; details: U-87MG ATCC, time hrs <=72
U-87 MG [12] = assay: Induction of cell cycle arrest in human U-87 MG cells assessed as increase in G2 phase accumulation at 10 uM incubated for 72 hrs by propidium iodide/RNase A staining based flow cytometry; format: functional; details: U-87MG ATCC
[13] = target: DNA topoisomerase 2-alpha (Homo sapiens) (UniProt P11388); assay: Inhibition of human topoisomerase 2 alpha using supercoiled DNA pBR322 as substrate assessed as DNA relaxation at 100 uM incubated for 30 mins by ethidium bromide staining based agarose gel electrophoresis
Sequence of DNA topoisomerase 2-alpha (Homo sapiens) (P11388 whole entry): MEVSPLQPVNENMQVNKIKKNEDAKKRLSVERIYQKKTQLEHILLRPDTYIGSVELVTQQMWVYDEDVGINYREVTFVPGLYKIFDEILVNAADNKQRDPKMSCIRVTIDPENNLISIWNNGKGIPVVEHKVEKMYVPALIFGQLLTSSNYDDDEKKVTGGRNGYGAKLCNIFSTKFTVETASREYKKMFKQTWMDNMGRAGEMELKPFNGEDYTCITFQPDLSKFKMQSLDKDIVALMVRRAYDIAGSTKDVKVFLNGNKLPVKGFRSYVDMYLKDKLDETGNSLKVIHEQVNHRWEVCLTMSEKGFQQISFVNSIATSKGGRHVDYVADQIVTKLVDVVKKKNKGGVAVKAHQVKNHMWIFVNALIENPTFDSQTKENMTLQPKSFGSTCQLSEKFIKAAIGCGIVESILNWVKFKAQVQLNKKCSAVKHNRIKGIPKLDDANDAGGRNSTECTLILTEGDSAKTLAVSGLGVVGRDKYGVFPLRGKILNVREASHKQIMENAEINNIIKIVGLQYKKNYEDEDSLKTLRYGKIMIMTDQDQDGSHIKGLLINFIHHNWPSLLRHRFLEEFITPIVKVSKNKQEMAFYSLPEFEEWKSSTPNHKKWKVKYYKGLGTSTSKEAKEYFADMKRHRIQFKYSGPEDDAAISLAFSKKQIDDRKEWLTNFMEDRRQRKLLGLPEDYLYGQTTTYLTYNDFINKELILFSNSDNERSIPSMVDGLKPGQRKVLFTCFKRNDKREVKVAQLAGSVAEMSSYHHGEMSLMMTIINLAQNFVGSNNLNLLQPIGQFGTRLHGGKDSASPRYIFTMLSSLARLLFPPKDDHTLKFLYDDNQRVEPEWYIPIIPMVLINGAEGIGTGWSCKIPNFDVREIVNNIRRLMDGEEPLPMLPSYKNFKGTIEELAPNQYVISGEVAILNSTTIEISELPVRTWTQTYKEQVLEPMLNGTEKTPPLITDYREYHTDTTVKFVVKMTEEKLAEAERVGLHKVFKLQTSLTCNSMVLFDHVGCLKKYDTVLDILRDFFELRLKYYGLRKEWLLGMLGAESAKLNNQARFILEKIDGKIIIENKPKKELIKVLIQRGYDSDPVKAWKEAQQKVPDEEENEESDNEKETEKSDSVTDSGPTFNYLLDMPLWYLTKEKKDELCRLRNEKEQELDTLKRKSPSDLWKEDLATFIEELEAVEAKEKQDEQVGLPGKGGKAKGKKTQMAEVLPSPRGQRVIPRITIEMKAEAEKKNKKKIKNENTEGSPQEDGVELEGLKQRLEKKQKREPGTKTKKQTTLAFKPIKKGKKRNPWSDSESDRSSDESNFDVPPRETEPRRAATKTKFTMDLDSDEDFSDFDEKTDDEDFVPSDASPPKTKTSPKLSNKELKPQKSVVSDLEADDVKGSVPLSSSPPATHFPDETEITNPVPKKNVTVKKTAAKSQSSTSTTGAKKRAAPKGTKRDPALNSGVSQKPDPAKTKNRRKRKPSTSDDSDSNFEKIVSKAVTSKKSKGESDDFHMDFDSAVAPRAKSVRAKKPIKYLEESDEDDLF

[14] = Half life in Sprague-Dawley rat at 100 mg/kg, ip measured up to 24 hrs by LC-MS analysis; format: ADME, organism-based; details: in vivo
[15] = Tmax in Sprague-Dawley rat at 100 mg/kg, ip measured up to 24 hrs by LC-MS analysis; format: ADME, organism-based; details: in vivo
U-87 MG [16] = assay: Antiproliferative activity against human U-87 MG cells assessed as cell survival at <= 1.1 uM measured after 24 hrs by CCK-8 assay; format: functional, U-87MG ATCC; details: dose microM <=1.1
U-251 [17] = assay: Inhibition of colony formation in human U-251 cells measured after 8 days by crystal violet staining based assay; format: functional, cell-based; details: time 8.0 day
U-87 MG [18] = assay: Induction of morphological changes in human U-87 MG cells assessed as appearance of rounded and shortened cells at 3.3 uM incubated for 72 hrs by Giemsa staining based light microscopic method; format: functional, cell-based; details: U-87MG ATCC
[19] = AUC (0 to t) in Sprague-Dawley rat at 100 mg/kg, ip measured up to 24 hrs by LC-MS analysis; format: ADME, organism-based; parameters: route intraperitoneal, dose 100 mg/kg, time <=24; details: in vivo
U-87 MG [20] = assay: Antiproliferative activity against human U-87 MG cells assessed as inhibition of cell growth measured after 72 hrs by CCK-8 assay; format: functional, cell-based, U-87MG ATCC
U-251 [21] = assay: Induction of cell cycle arrest in human U-251 cells assessed as increase in G2 phase accumulation at 10 uM incubated for 72 hrs by propidium iodide/RNase A staining based flow cytometry (reference value: 20.88%); format: functional
U-251 [22] = assay: Induction of morphological changes in human U-251 cells assessed as appearance of spindle cell shape at 3.3 uM incubated for 72 hrs by Giemsa staining based light microscopic method; format: functional
U-87 MG [23] = assay: Induction of morphological changes in human U-87 MG cells assessed as appearance of spindle cell shape at 3.3 uM incubated for 72 hrs by Giemsa staining based light microscopic method; format: functional; details: U-87MG ATCC

SMILES	concentration at 6 h [1] [ng/mL]	inhibition [2]	Activity (U-251 [3])	inhibition [4]	Activity (U-87 MG [5])	Activity [6]	inhibition (U-251 [7])	Activity (U-87 MG [8])	IC50 (C6) [µM]	Activity [9]	Activity (U-87 MG [10])	Activity (U-87 MG [11])	Activity (U-87 MG [12])	inhibition [13]	half-life [14] [h]	Tmax [15] [h]	Survival (U-87 MG [16]) [%]	inhibition (U-251 [17])	Activity (U-87 MG [18])	AUC(0-t) at 24 h [19] [ng·h/mL]	further results
Cc1c(Cl)cccc1Nc1ccccc1C(=O)Nc1ccc2c(c1)OCO2	1410	Active	Active	Active	Dose-Dependent Effect	Non-Toxic	Dose-Dependent Effect	Active	16.9	Toxic	Active	Dose-Dependent Effect	Active	inactive	8.36	3.33	>80	Dose-Dependent Effect	Active	46200	IC50 (U-87 MG [20]): 6.46 µM; Activity (U-251 [21]): 74.64%; Activity (U-251 [22]): Active; Activity (U-87 MG [23]): Active
COc1ccc(NC(=O)c2ccccc2Nc2cccc(Cl)c2C)cc1	3380	Active	Active	Active	Dose-Dependent Effect	Toxic	Dose-Dependent Effect	Active	10.1	Toxic	Active	Dose-Dependent Effect	Active	inactive	6.7	3.33	>80	Dose-Dependent Effect	Active	78400	IC50 (U-87 MG [20]): 4.77 µM; Activity (U-251 [21]): 73.72%; Activity (U-251 [22]): Active; Activity (U-87 MG [23]): Active

From ChEMBL document CHEMBL5032522, “N-2-(phenylamino) benzamide derivatives as novel anti-glioblastoma agents: Synthesis and biological evaluation” (Eur J Med Chem, 2021)
